# Measured values taken from US20090081310A1, “METHOD FOR R[…] STRUCTURE CO[…] MOLD” (priority 2004, published 2009).
# Tests used:
# mold and mold spores [1] = assay: Fumigation of an approximately 50,000 ft^2 mold-contaminated building with chlorine dioxide gas (Example 1); settings: 2,500 to 3,000 ppmv over 3 hours; approx. 75° F., approx. 75% relative humidity
# Experimental: An approximately 50,000 ft^2 mold-contaminated building (1 million cubic feet approximately) was remediated by fumigating the building with chlorine dioxide gas at a concentration within the range of 2,500 to 3,000 ppmv over a period of 3 hours. Temperature was maintained at approximately 75° F. and the relative humidity was maintained at approximately 75% before and during fumigation. Carpets and other porous materials within the contaminated building were not removed prior to fumigation. […] Porous surfaces that were black, grey and green shades prior to treatment were returned to original appearance. The mold mass was also substantially eliminated such that one to four square foot samples were required to collect 0.1 to 0.25 grams of mold residue resulting in a 99+ percent elimination in mold mass. Samples of the treated material were analyzed by PCR (polymerase chain reaction) analysis for DNA. Depending upon the initial concentration levels a 3 to 7 log reduction in DNA was observed.
# mold and mold spores [2] = assay: Fumigation of an approximately 6000 square feet mold-contaminated structure with chlorine dioxide gas (Example 2); settings: 600 to 1300 ppmv for 12 hours, total CT over 9000 ppmv hours; 70 to 100° F., minimum 65% relative humidity; including mold underneath wallpaper
# Experimental: A structure of approximately 6000 square feet consisting of three above surface floors and a basement was located that had developed significant mold growth of a variety of species due to water intrusion and appropriate environmental conditions. […] Mold growth was visible and abundant upon walls, ceilings and other surfaces.
# The temperature of the structure was raised and maintained in the range of 70 to 100° F. (21 to 38° C.) and the relative humidity was raised to a minimum of 65%. Chlorine dioxide solution was generated in a closed fluid loop by the process described in U.S. Pat. No. 6,468,479. Chlorine dioxide gas was added to the structure at such a rate as to maintain a concentration of between 600 and 1300 ppmv for a 12 hour period and a total CT of over 9000 ppmv hours of chlorine dioxide.
# Chlorine dioxide concentration and purity were monitored by AWWA standard method 6500-ClO2-E in solution phase and a modification therewith to adapt the procedure for gas phase sampling. […] The maximum chlorine dioxide concentration detected exterior to the containment tent was less than 2 parts per billion, well within the maximum exposure guidelines established.
# Following treatment mold viability was evaluated in the structure. […]
# mold spores = assay: Mold remediation with chlorine dioxide gas, general finding; settings: time averaged concentration about 500 to 1500 ppmv over a 12 hour period
# Experimental: It is an aspect of this invention to minimize the chlorine dioxide concentration and CT to the extent possible to assure decontamination while avoiding damage to building contents such as electronic equipment (e.g., telephone equipment, computers, copiers, and other electronic office equipment), furnishings, and the like. Typical chlorine dioxide concentrations are in the range of 500 to 3000 ppmv, and exposure times are typically about 8 to 12 hours. For mold remediation, a time averaged chlorine dioxide gas concentration in the range of about 500 to 1500 ppmv over a 12 hour period has been found effective for killing mold spores and eliminating allergenic effects.
compound,measurement,setting,value
"[O][Cl+][O-] [chlorine dioxide gas, chlorine dioxide]",elimination in mold mass,mold and mold spores [1],≥ 99%
same,viable mold and mold spores in the facility,mold and mold spores [1],substantially eliminated viable mold and mold spores
same,mold and mold spores rendered non viable,mold and mold spores [2],~100%
same,killing mold spores and eliminating allergenic effects,mold spores,effective
